Reference: patent US20230277630A1, “METHODS AND COMPOSITIONS FOR TREATING AMYOTROPHIC LATERAL SCLEROSIS” (Amylyx Pharmaceuticals, Inc., priority 2022, published 2023)
Where “and” joins values, the source holds several entries; their conditions need not be identical. Equal values may be shown once. Read-outs that look alike come from different tables or passages of the source.

Key:
hrCYP3A4 = hrCYP3A4 (Homo sapiens, UniProt P08684); details: recombinant enzyme, 5 μM, pH 7.4
Experimental: (§1) The reaction was initiated by the addition of NADPH, followed by incubation at 37° C.
(§2) % Remaining of TA=100×At/A0
(§3) Where, At is the peak area ratio of TA to internal standard (IS) at time t, A0 is the average peak area ratio of TA to IS at time zero.

hrCYP2C8 = target: T1, hrCYP2C8 (Homo sapiens, UniProt P10632); details: recombinant enzyme, 5 μM, pH 7.4
T1 sequence (P10632 1-490): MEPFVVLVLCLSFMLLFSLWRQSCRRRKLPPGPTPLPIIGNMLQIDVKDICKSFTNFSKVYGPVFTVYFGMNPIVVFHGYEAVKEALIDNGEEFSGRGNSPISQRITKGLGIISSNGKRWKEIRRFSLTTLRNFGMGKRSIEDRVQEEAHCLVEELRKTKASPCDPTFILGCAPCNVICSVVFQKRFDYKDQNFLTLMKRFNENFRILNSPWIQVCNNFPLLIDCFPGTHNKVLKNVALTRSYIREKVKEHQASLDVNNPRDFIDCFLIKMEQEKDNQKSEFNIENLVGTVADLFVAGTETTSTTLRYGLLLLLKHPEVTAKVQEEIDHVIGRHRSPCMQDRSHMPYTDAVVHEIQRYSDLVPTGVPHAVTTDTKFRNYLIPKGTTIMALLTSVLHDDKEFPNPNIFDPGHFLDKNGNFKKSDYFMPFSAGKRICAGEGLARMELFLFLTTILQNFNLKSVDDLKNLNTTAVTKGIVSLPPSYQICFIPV
Experimental: as §1, §2, §3

OCT2 = target: T2, OCT2 (Homo sapiens, UniProt O15244)
T2 sequence (O15244 1-555): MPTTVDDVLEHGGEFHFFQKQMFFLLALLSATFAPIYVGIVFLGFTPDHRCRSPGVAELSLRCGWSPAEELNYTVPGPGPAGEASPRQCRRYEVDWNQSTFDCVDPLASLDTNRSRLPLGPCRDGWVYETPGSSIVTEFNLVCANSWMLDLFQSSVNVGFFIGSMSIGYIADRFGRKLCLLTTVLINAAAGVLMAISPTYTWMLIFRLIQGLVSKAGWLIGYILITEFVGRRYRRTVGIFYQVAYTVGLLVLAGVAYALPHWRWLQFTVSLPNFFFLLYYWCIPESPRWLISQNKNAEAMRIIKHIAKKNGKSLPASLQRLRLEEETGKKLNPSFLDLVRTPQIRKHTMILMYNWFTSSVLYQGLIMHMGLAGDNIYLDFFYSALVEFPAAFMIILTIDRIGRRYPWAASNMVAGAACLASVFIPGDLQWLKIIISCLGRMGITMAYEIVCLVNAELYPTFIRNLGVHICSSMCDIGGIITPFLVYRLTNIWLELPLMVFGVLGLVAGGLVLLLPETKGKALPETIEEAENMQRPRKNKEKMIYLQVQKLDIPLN

[1] = Non-specific binding assessment, efflux transporter format (cell-free Transwell plates); assay type: in vitro ADME; details: pH 7.4, all three replicates
From the text: Triplicate wells were used for the assay (Table 31). The samples were withdrawn at pre-selected time points from the receiver and donor compartments and mixed with an equal volume of acetonitrile containing IS.

[2] = Solubility assessment in HBSSg_7.4 and HBSSg_8.5; details: for solubility: 37 °C, thermodynamic from solid; for Measured Concentration / Percent of the Nominal Concentration: replicates 1-3; for Measured Concentration: incubated overnight
BCRP = target: T3, BCRP (Homo sapiens, UniProt Q9UNQ0); test: BCRP IC50 assessment, bidirectional cladribine transport in BCRP-MDCK cells
T3 sequence (Q9UNQ0 1-655): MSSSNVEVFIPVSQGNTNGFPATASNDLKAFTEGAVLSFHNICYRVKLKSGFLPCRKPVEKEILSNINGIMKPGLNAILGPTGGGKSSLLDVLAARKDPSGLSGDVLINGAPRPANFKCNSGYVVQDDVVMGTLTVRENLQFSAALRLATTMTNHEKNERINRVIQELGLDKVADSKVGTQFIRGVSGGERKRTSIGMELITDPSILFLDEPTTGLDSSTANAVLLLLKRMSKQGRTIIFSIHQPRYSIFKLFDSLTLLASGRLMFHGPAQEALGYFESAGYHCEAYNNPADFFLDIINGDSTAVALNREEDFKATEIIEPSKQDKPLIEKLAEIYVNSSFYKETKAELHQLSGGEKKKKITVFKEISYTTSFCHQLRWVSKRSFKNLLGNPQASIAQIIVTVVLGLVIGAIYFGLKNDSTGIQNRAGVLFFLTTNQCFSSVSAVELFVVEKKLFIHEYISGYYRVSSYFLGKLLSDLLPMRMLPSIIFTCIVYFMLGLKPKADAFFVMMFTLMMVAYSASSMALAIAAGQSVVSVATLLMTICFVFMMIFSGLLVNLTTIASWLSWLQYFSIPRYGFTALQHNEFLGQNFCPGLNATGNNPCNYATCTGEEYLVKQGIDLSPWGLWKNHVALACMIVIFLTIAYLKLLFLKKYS
Experimental: After 30 minutes, the pre-incubation solution was aspirated.

[3] = Non-specific binding assessment, uptake transporter format (cell-free poly-D-lysine plates); assay type: in vitro ADME; details: cell-free poly-D-lysine-coated 24-well plates, without BSA pre-incubation, both matrices
Experimental: Two treatments (three wells each) were included: in the first treatment, the wells were pre-incubated for 5 minutes with HBSSg_7.4_BSA or HBSSg_8.5_BSA; in the second treatment, no pre-incubation was performed (Table 32). After the pre-incubation, the solution was aspirated, and dosing solution (500 μL) was added to each well. […] After the incubation, aliquots (200 μL) were withdrawn from each chamber, combined with an equal volume of acetonitrile containing IS, and stored at 4° C. until analysis.

[4] = HBSSg 7.4 buffer, pH 7.4, aqueous buffer
[5] = HBSSg 8.5 buffer, pH 8.5, aqueous buffer

Chain of hrCYP3A4 (P08684 whole entry): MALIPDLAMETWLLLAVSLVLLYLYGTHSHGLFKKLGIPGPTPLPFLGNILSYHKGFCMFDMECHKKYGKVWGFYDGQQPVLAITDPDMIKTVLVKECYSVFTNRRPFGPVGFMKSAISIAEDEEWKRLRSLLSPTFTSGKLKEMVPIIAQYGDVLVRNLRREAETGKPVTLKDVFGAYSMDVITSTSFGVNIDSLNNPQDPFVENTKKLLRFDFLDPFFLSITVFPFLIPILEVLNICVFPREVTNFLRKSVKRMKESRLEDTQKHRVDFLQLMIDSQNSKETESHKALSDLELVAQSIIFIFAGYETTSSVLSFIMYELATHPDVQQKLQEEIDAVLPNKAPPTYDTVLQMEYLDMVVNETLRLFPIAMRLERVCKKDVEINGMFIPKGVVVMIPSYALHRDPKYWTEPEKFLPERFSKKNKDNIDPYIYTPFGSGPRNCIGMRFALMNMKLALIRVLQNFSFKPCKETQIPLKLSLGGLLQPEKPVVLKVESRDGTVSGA

| SMILES | % Remaining of TA (hrCYP3A4; 0 h) [%] | % Remaining of TA (hrCYP3A4; 5 min) [%] | % Remaining of TA (hrCYP3A4; 10 min) [%] | % Remaining of TA (hrCYP3A4; 20 min) [%] | % Remaining of TA (hrCYP3A4; 0.5 h) [%] | % remained after 60 minutes of incubation (hrCYP3A4; 1 h) | % remained after 60 minutes of incubation (hrCYP2C8; 1 h) | IC50 (OCT2) [µM] | recovery [1] [%] | solubility [2, 4] [mM] | solubility [2, 5] [mM] | IC50 (BCRP) [µM] | recovery at 5 min [3] [%] | other results |
| --- | --- | --- | --- | --- | --- | --- | --- | --- | --- | --- | --- | --- | --- | --- |
| O=C(O)CCCc1ccccc1 [PB, sodium phenylbutyrate] | 100 | 100 | 97.9 | 100 | 98.1 | greater than 90% | greater than 90% | > 14800 | > 80 | ≥ 64.4 | ≥ 73.9 | 2390 to 7160 | > 90 | Measured Concentration ([2]; HBSSg_7.4): 52000 µM and 59300 µM and 52800 µM; Percent of the Nominal Concentration ([2]; HBSSg_7.4, target 8005 (TUDCA), 64447 μM (PB)): 80.7% and 92.0%; Measured Concentration ([2]; HBSSg_8.5): 62200 µM and 53200 µM and 61100 µM; Percent of the Nominal Concentration ([2]; HBSSg_8.5, target 810 μM (TUDCA), 73927 μM (PB)): 84.1% and 72.0% and 82.6% |
| C[C@H](CCC(=O)NCCS(=O)(=O)O)[C@H]1CC[C@H]2[C@@H]3[C@@H](O)C[C@@H]4C[C@H](O)CC[C@]4(C)[C@H]3CC[C@]12C [TUDCA, tauroursodeoxycholic acid] | 100 | 97.1 | 92.1 | 91.4 | 90.9 | greater than 90% | greater than 90% | > 162 | > 80 | ≥ 8.01 | ≥ 0.81 | 296 to 889 | > 90 | % Remaining of TA (hrCYP3A4; 1 h): 91.1%; % Remaining of TA (hrCYP2C8; 0 h): 100%; % Remaining of TA (hrCYP2C8; 10 min): 99.3%; % Remaining of TA (hrCYP2C8; 20 min): 101%; % Remaining of TA (hrCYP2C8; 0.5 h): 101%; % Remaining of TA (hrCYP2C8; 1 h): 99.8% |
